In the supplement of paper PMC10307832:

Key:
Experiment in all cases: relative viability (nuclei count vs DMSO), 5 days (fraction); higher = more cells survive
[1] = compound: NS(=O)(=O)OC[C@@H]1C[C@@H](n2ccc3c(N[C@H]4CCc5ccccc54)ncnc32)C[C@@H]1O [MLN4924] + COc1cccc2cc(-c3nc([C@H]4CC[C@H](C(=O)O)CC4)n4ncnc(N)c34)[nH]c12 [OSI-027] (partner 0.5 µM)
In short: (§1)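 For relative viability, nuclei counts in treated wells were divided by those in vehicle wells. Lung cancer cell lines had been pin-tool dosed in 1536-well plates the day after seeding and cultured for 5 days, then fixed and stained in one step (final 0.05% Triton X-100, 1% formaldehyde, 1 ug/ml Hoechst) and imaged at 4×. Doses were one drug alone or a fixed anchor-drug dose plus five library-drug doses (not always all listed) in √10 steps, and values are duplicate-plate medians.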

[2] = compound: C1CC(C1)(C(=O)O)C(=O)O.[NH2-].[NH2-].[Pt+2] [Carboplatin] + O=C(CCCCCCC(=O)Nc1ccccc1)NO [Vorinostat] (partner 1 µM)
In short: as §1

[3] = compound: NS(=O)(=O)OC[C@@H]1C[C@@H](n2ccc3c(N[C@H]4CCc5ccccc54)ncnc32)C[C@@H]1O [MLN4924] + C[C@@H](Oc1cc(-c2cnn(C3CCNCC3)c2)cnc1N)c1c(Cl)ccc(F)c1Cl [Crizotinib] (partner 1 µM)
In short: as §1

Cell Line | relative viability ([1]; first compound 0.04 µM) | relative viability ([1]; first compound 0.1265 µM) | relative viability ([1]; first compound 0.4 µM) | relative viability ([1]; first compound 1.265 µM) | relative viability ([1]; first compound 4 µM) | relative viability ([2]; first compound 0.08 µM) | relative viability ([2]; first compound 0.253 µM) | relative viability ([2]; first compound 0.8 µM) | relative viability ([2]; first compound 2.53 µM) | relative viability ([2]; first compound 8 µM) | relative viability ([3]; first compound 0.04 µM) | relative viability ([3]; first compound 0.1265 µM) | relative viability ([3]; first compound 0.4 µM) | relative viability ([3]; first compound 1.265 µM) | relative viability ([3]; first compound 4 µM)
NCI-H1437 | 0.845 | 0.914 | 0.828 | 0.305 | 0.174 | 0.803 | 0.869 | 0.728 | 0.808 | 0.598 | 0.854 | 0.77 | 0.626 | 0.336 | 0.164
EMC-BAC-2 | 0.383 | 0.36 | 0.197 | 0.194 | 0.243 | 0.664 | 0.416 | 0.616 | 0.536 | 0.331 | 0.601 | 0.283 | 0.242 | 0.164 | 0.167
NCI-H520 | 0.294 | 0.295 | 0.363 | 0.202 | 0.191 | 0.668 | 0.745 | 0.837 | 0.775 | 0.395 | 0.431 | 0.491 | 0.338 | 0.168 | 0.151
NCI-H1993 | 0.549 | 0.523 | 0.532 | 0.488 | 0.52 | 0.801 | 0.809 | 0.8 | 0.712 | 0.522 | 1.02 | 0.678 | 0.626 | 0.447 | 0.622
HCC-827 | 0.794 | 0.558 | 0.686 | 0.151 | 0.159 | 1.15 | 0.9 | 0.768 | 0.765 | 0.713 | 0.836 | 0.658 | 0.61 | 0.247 | 0.178
NCI-H2087 | 0.41 | 0.498 | 0.516 | 0.14 | 0.104 | 0.981 | 1.23 | 0.62 | 0.531 | 0.396 | 0.696 | 0.802 | 0.411 | 0.224 | 0.139
HARA | 0.465 | 0.361 | 0.271 | 0.0502 | 0.0686 | 0.471 | 0.561 | 0.472 | 0.519 | 0.35 | 0.752 | 0.401 | 0.349 | 0.0875 | 0.0794
NCI-H2126 | 0.665 | 0.75 | 0.59 | 0.407 | 0.346 | 0.804 | 0.894 | 0.832 | 0.823 | 0.856 | 0.912 | 0.911 | 0.789 | 0.397 | 0.256
LCLC-103H | 0.467 | 0.491 | 0.539 | 0.178 | 0.156 | 0.804 | 0.785 | 0.72 | 0.768 | 0.692 | 1.13 | 1.09 | 0.713 | 0.289 | 0.321
SK-LU-1 | 0.366 | 0.331 | 0.177 | 0.128 | 0.139 | 0.923 | 0.657 | 0.861 | 0.664 | 0.459 | 0.951 | 0.802 | 0.236 | 0.182 | 0.201
EKVX | 0.71 | 0.712 | 0.622 | 0.214 | 0.175 | 0.746 | 0.659 | 0.682 | 0.676 | 0.693 | 0.865 | 0.654 | 0.461 | 0.226 | 0.133
